We go through 98 molecules from ChEMBL document CHEMBL3507680, “University of Dundee, Gates Library screen for HepG2 cell viability”.

This series in a line: Human HepG2 cell viability assay in 384 well format. The class given is toxicity, cell-based. Further details: dose 125 nL, time 70.5 hour; cytotoxicity at 70.5 h: concentration not given beside the values. To be noted: HepG2 cells, read-out: Inhibition.
As for `CC(c1nc(C2CC2)no1)N(C)Cc1cccc(F)c1` (stereo not drawn), the cytotoxicity at 70.5 h was -2.41%.

For the molecule `Cc1cccnc1C(NC(=O)CNC(=O)c1ccoc1C)C(C)C` (stereo not drawn), the cytotoxicity at 70.5 h was found to be 3.13%. As for `O=C(CNc1ccc(OC2CCOC2)cc1)NCc1ccco1` (stereo not drawn), the cytotoxicity at 70.5 h is -21.4%.

On to `Cc1ccc(O)c(CNC2CCc3nc(C(C)C)nn3C2)n1` (stereo not drawn), for which the cytotoxicity at 70.5 h is -11.7%. Next, `CC(=O)N1CCC2(C1)c1ccccc1S(=O)(=O)N2Cc1ccccc1` (stereo not drawn): 3.49%. Next, `COc1cc(C(C)=O)ccc1SCC(=O)Nc1ccc(C)cn1`: -7.73%; `CC(C)c1noc(C2CCCN2C(=O)Cc2cn3ccsc3n2)n1` (stereo not drawn): -9.25%.

Consider `CC1CN(C)CCN1C(=O)Nc1nc(-c2cccn2C)cs1` (stereo not drawn), for which the cytotoxicity at 70.5 h is -13.9%.

As to `FC(F)C(F)(F)COCc1ncnn1-c1ccc2c(c1)OCO2`, the cytotoxicity at 70.5 h turned out to be 6.96%.

`Cc1cnn(CC(C)NCc2ccc(C#N)cc2)c1` (stereo not drawn): the cytotoxicity at 70.5 h is 0.599%. In the case of `Cc1csc(C2CCCCN2C(=O)CCCn2cccn2)n1` (stereo not drawn) it was -11.4%; in that of `O=C1CC[C@]2(CC[C@@H](NC3CCOC3)CC2)N1Cc1ccccc1` (stereo partly drawn), -1.97%. Next, `O=C([C@@H]1CC[C@@H]2[C@@H](CCN2Cc2cccs2)O1)N1CCCCO1`: -7.83%; `COc1ccc(F)cc1CN1CCCC1Cn1nc(C)nc1C` (stereo not drawn): -1.67%; `O=C(c1ccoc1)N1CCn2nc(CN3CCSCC3)cc2C1`: 17.6%. Next, `CC(=O)N1CCC(Oc2ccc(C#N)cn2)CC1`: -3.09%; `Cc1cc(C)c(C(=O)N2CCC3(CCCNC3)C2)cc1C` (stereo not drawn): 25.6%.

On to `CN1CCOC(CNC(=O)C2(c3cccc(C(F)(F)F)c3)CCCC2)C1` (stereo not drawn), for which the cytotoxicity at 70.5 h was found to be 6.99%. In the case of `CSc1nc2ccsc2c(=O)n1CC(=O)NC1CCCCC1` it was -6.83%; in that of `COc1cccc(CNC(=O)C(C)n2ccnc2C(C)C)c1OC` (stereo not drawn), 23.8%; in that of `COc1ccc(C(CO)NC(=O)Nc2cccc(C(C)=O)c2)cc1` (stereo not drawn), -6.17%. Consider `Cc1cccnc1CN1CCN(CC(=O)N(C)C)[C@@H]2CS(=O)(=O)C[C@@H]21`, for which the cytotoxicity at 70.5 h is -5.23%. In the case of `CC(C)c1nc(CN(C)C(=O)c2ccc3c(c2)OCO3)cs1` it was -9.84%; in that of `CC(C)Sc1nnnn1C1CCCC1`, -9.93%; in that of `Cc1nc(S(=O)(=O)NCCC(=O)NCc2ccc(C#N)cc2)cn1C`, -0.237%. Next, `CCC(NCc1ncc[nH]1)c1nc(C(F)(F)F)cs1` (stereo not drawn): -4.3%; `CCC(=O)NC(CC)c1ccccc1C` (stereo not drawn): -5.25%; `COc1c(Br)c(CC2CC(CO)=NO2)c(OC)c2c1OCO2` (stereo not drawn): -9.88%.

`CC(C)=CCN1CC2(CCN(Cc3c(F)cccc3F)CC2)CC1=O`: the cytotoxicity at 70.5 h was determined as 23.4%.

As for `Cc1ccc(C(=O)N(C)Cc2ccc3c(c2)OCCO3)c(=O)[nH]1`, the cytotoxicity at 70.5 h worked out at 18.5%. Next, `CN(C)CC(=O)N1CCC2(CCc3cc(-c4cccnc4)ccc32)CC1`: -0.278%; `COc1ccc2c(c1)C1(CCN(Cc3cccnc3)CC1)N(C)CC2`: -1.98%; `C[C@@H]1CN(CC(C)(C)N2CCOCC2)C[C@@]1(O)C1CC1`: -6.35%. In the case of `O=C(c1ccc2c(c1)OCO2)N1CCCC(n2cccn2)C1` (stereo not drawn) it was -6.41%; in that of `Cc1cc(N)nc(SC2CCCN(Cc3ccccc3)C2=O)n1` (stereo not drawn), -9.67%; in that of `Cc1cnn(CC2CCCN2C(=O)c2ccc3[nH]c(=O)[nH]c3c2)c1` (stereo not drawn), -1.55%. In the case of `CCN(CC)c1nc2sc(C(=O)N3CCNC(=O)C3)cc2s1` it was -8.64%; in that of `Cc1nn(C)c(C)c1CC(=O)N1CCC(N(C)c2cccnn2)CC1`, 20.4%; in that of `CC(=O)NCC(=O)N1CCc2c(CN(C)C)nn(C(C)C)c2C1`, -2.84%.

Take `CCOc1nnc(CN(CC)CC(=O)Nc2c(F)cccc2F)s1`: the cytotoxicity at 70.5 h is -5.55%. Next, `CN(C)c1ncc(-c2cccc(C(N)=O)c2)c(C2CNCCO2)n1` (stereo not drawn): -1.28%. In the case of `Cc1nc(-c2ccco2)ccc1C(=O)NCCCN1CCOCC1` it was -98.3%; in that of `CCOc1ccc(CC(CNC(=O)c2ccco2)C(N)=O)cc1` (stereo not drawn), -6.1%; in that of `c1cc(COC[C@H]2CCC[C@]23CNCCO3)ccn1`, 0.216%.

On to `O=C(O)CCn1nc(C(F)(F)F)c(Cl)c1C1CC1`, for which the cytotoxicity at 70.5 h was -19.2%. Consider `CCOCC1CN(C(=O)c2ccnnc2)Cc2cnn(C)c21` (stereo not drawn), for which the cytotoxicity at 70.5 h was -4.89%. In the case of `Cc1ccc(C(C(=O)N2CCC(Cc3noc(C)n3)CC2)N(C)C)cc1` (stereo not drawn) it was -8.55%; in that of `COc1ccc(CNC(=O)NC(C)Cn2cccn2)cc1O` (stereo not drawn), -16.1%; in that of `Cc1cc(CN(C)CC2CCCCC2)no1`, -2%. As to `CCC(O)CN1CCN(C(=O)Cc2ccc(C)nc2)CC1` (stereo not drawn), the cytotoxicity at 70.5 h is -0.788%. In the case of `Cc1ccc(-c2nc(CN3CCn4c(C)nnc4C3)cs2)o1` it was -7.11%; in that of `Cc1n[nH]c(C)c1CC(=O)N1CC[C@@](C)(O)[C@H](Oc2ccccc2)C1`, -6.16%.

As for `CC(C)CN1CC(C(=O)NCCc2ccc(OC(F)F)cc2)CC1=O` (stereo not drawn), the cytotoxicity at 70.5 h came out at 9.73%.

With `O=C(c1cc[nH]n1)N1CC[C@@H]2CN(Cc3ccccc3)S(=O)(=O)[C@@H]2CC1`, the cytotoxicity at 70.5 h was -13.3%. In the case of `CN(C)C(=O)CO[C@H]1CN(Cc2cccc(C#N)c2)[C@@H]2COC[C@H]12` it was 7.63%; in that of `CC(C)c1cc(N2CCC(CCC(=O)NC3CC3)CC2)n2nccc2n1`, -10.7%. Next, `CC1CCCCN1S(=O)(=O)NCCN/C(O)=C1/N=CC=CC1=O` (stereo not drawn): -5.82%. For the molecule `Cc1ccc(CN2CCC[C@]3(C(=O)O)CN(CC4CC4)C[C@@H]3C2)s1`, the cytotoxicity at 70.5 h was -6.54%. Next, `Cc1cn(-c2ccccc2)nc1NS(=O)(=O)c1ccc(C(=O)O)cc1F`: -18%. With `CCc1nc(CN(C(C)=O)C2CCN(CCc3cnn(C)c3)C2)no1` (stereo not drawn), the cytotoxicity at 70.5 h was found to be 21.3%. In the case of `Cc1ccc(NC2CCN(C(=O)C(C)n3cncn3)CC2)nn1` (stereo not drawn) it was -0.916%. Next, `CC(=O)N1[C@H](CN(C)C)C[C@@H]2CN(C(=O)c3cccn3C)CC[C@@H]21`: -11.1%; `CN(c1ncnc2ccccc12)C1CCCN(c2cccnn2)C1` (stereo not drawn): -12.6%; `COC1COC2(CCN(C(=O)c3cscn3)CC2)C1` (stereo not drawn): -6.82%. Next, `O=C(CN1CCCC1c1nc(-c2ccccc2)no1)N1CCOCC1` (stereo not drawn): -4.9%; `c1ccc(C[C@H]2CN(Cc3nccs3)CC[C@@H]2OCC2CC2)cc1`: -2.59%; `CCN1CCN(c2ncc3c(=O)n(Cc4ccco4)ccc3n2)CC1`: -5.38%.

Consider `O=C(c1ccco1)N1CCC12CCN(c1ncc(F)cn1)CC2`, for which the cytotoxicity at 70.5 h came to 0.431%. In the case of `CCCN(CCO)S(=O)(=O)c1ccc2[nH]c(=O)[nH]c2c1` it was 1.55%; in that of `CCN(C(=O)c1ccc(-c2ccccc2)nc1C)C1CC(=O)NC1=O` (stereo not drawn), -5.68%.

In the case of `COc1ccc(CCNC(=O)NC2CC(=O)N(c3ccccc3)C2)cc1` (stereo not drawn), the cytotoxicity at 70.5 h came out at 49%. In the case of `O=C(CN1CCCS1(=O)=O)Nc1ccc(OC(F)F)cc1` it was -9.68%. For `CNC(=O)[C@@H]1C[C@@H](NC(=O)Cc2cccs2)CN1C1CCOCC1`, the cytotoxicity at 70.5 h was -3.22%. In the case of `c1ccc(NCc2cnc3n2CCN(C2CCOC2)CC3)nc1` (stereo not drawn) it was 15.7%. In the case of `CCN1C(=O)CCCC12CCCN(C(=O)c1cnccn1)C2` (stereo not drawn) it was -5.91%. In the case of `CC(C)N(CC(N)=O)C(=O)c1cnc(-c2ccc3c(c2)OCO3)s1` it was 5.92%; in that of `CN(Cc1cc(-c2ccncc2)no1)C(=O)[C@@H]1CSCN1C`, -13.1%; in that of `Cc1nn(CC(F)F)c2c1c(C(F)F)cc(=O)n2CC(=O)O`, 23.6%.

In the case of `Cc1nccc(N(C)Cc2ncc(-c3ccccc3C(=O)O)s2)n1`, the cytotoxicity at 70.5 h was -1.97%. In the case of `O=C(C[C@@H]1COC[C@H]2CN(CC3CC3)C[C@@H]12)N1CCCCO1` it was 5.39%; in that of `C[C@@H]1CN(C(=O)Cc2ccsc2)C[C@]12CCN(CCN(C)C)C2=O`, -10.3%. For the molecule `CC(C(=O)NCCOc1ccc2c(c1)CCC2)n1cncn1` (stereo not drawn), the cytotoxicity at 70.5 h turned out to be 7.17%. In the case of `CCC1=N[C@@]2(CC[C@@H]3CN(C(=O)NCc4cccc(F)c4)C[C@@H]32)C(=O)N1` it was -5.99%; in that of `Cc1ncncc1-c1ccnc(N(C)C)n1`, -1.27%. Next, `Cc1ccc(-c2ccc(C(=O)NCCC(=O)N(C)C)c(F)c2)cc1`: -6.22%; `Cc1nc(CN2CC[C@H]3C[C@H](c4ccncn4)O[C@@H]3C2)cs1`: -3.68%; `COC(=O)c1cccc(C(=O)N2CCN(c3ccccc3F)CC2)n1`: 28.8%. Next, `CC(C)CN(Cc1ccsc1)C(=O)CCCn1cncn1`: -0.11%. As to `O=C(CCC1CCCCC1)NCc1nnc2ccccn12`, the cytotoxicity at 70.5 h was -1.08%. For `CC(C)C(=O)N1CCC(C)(c2cc(O)[nH]n2)CC1`, the cytotoxicity at 70.5 h was 20%. Next, `Cc1nc(CN2CCN(C(=O)CCc3ccco3)CC2)cs1`: -5.22%; `O=C(c1c[nH]cn1)N1CCOCC2(C1)CN(c1ccccc1)C(=O)CO2` (stereo not drawn): -13.7%; `COC(=O)N1CCC(NC(=O)N2CCCC2c2ccsc2)CC1` (stereo not drawn): -4.05%. With `CN1CCOC(CNCCCOc2ccc(C#N)cc2)C1` (stereo not drawn), the cytotoxicity at 70.5 h was -5.34%. Next, `c1ccc(-c2nccc(N3CCc4c(ncn4C4CC4)C3)n2)cc1`: -17.8%; `COCc1cc(N(C)Cc2ccccn2)nc(C(C)(C)C)n1`: -10.1%; `Cc1nc(S(=O)(=O)CCn2cccn2)n(C2CCCC2)c1C`: 10.5%. In the case of `Cn1cnnc1S(=O)(=O)C1CCN(C(=O)c2ccco2)CC1` it was 10.3%.
